Reference: patent publication US20070128217A1 (priority 2003, published 2007)

Key:
[1] = system: rabbit serum obtained by immunizing a rabbit with the SARS-CoV strain Frankfurt 1; type: binding; design: Binding of a rabbit serum to linear peptides / Binding of a rabbit serum to looped peptides / Rabbit serum linear peptides / Rabbit serum looped peptides / Binding of a rabbit serum to linear peptides of protein N of SARS-CoV Urbani (Rabbit serum linear peptides) / Binding of a rabbit serum to looped/cyclic peptides of protein N of SARS-CoV Urbani (Rabbit serum looped peptides): unit not given here
[2] = system: control sera (pooled serum of ten healthy LUMC hospital workers; commercial negative donor pooled serum from the Dutch bloodbank); type: binding, human; design: Binding of Control serum LUMC to linear peptides / Binding of Control serum Blood-bank to linear peptides / Binding of Control serum LUMC to looped peptides / Binding of Control Serum Blood-Bank to Looped peptides / Binding of Control serum LUMC to linear peptides of the protein M of SARS-CoV Urbani / Binding of Control serum Blood-bank to linear peptides of the protein M of SARS-CoV Urbani / Binding of Control serum LUMC to looped peptides of the protein M of SARS-CoV Urbani / Binding of Control Serum Blood-Bank to Looped peptides of the protein M of SARS-CoV Urbani: unit not given here
[3] = system: antibodies in sera from SARS patients (sera 1a, 1b, 2, 6, 37, 62, London, SARS-yellow, SARS-green); type: binding, human; design: Binding of serum 6 to linear peptides of protein X1 of SARS-CoV Urbani / Binding of serum 37 to linear peptides of protein X1 of SARS-CoV Urbani / Binding of serum 6 to looped/cyclic peptide (PEPSCAN-ELISA) / Binding of serum 37 to looped/cyclic peptide (PEPSCAN-ELISA) / Binding of serum 37 to looped/cyclic peptides of protein X1 of SARS-CoV Urbani / Binding of serum 6 to linear peptides of protein X2 / Binding of serum 37 to linear peptides of protein X2 / Binding of serum 37 to looped/cyclic peptides of protein X2 of SARS-CoV Urbani / Binding of serum 6 to linear peptides of protein M of SARS-CoV Urbani / Binding of serum 37 to linear peptides of protein M of SARS-CoV Urbani / Binding of serum 6 to looped/cyclic peptides of protein M of SARS-CoV Urbani / Binding of serum 37 to looped/cyclic peptides of protein M of SARS-CoV Urbani / Binding of serum 6 to linear peptides of protein X3 of SARS-CoV Urbani / Binding of serum 37 to linear peptides of protein X3 of SARS-CoV Urbani / Binding of serum 37 to looped/cyclic peptides of protein X3 of SARS-CoV Urbani / Binding of serum 6 to linear peptides of protein X4 of SARS-CoV Urbani / Binding of serum 37 to linear peptides of protein X4 of SARS-CoV Urbani / Binding of serum 37 to looped/cyclic peptides of protein X4 of SARS-CoV Urbani / Binding of serum 6 to linear peptides of protein X5 of SARS-CoV Urbani / Binding of serum 37 to linear peptides of protein X5 of SARS-CoV Urbani / Binding of serum 37 to looped/cyclic peptides of protein X5 of SARS-CoV Urbani / Binding of serum 6 to linear peptides of protein N of SARS-CoV Urbani / Binding of serum 37 to linear peptides of protein N of SARS-CoV Urbani / Binding of serum 6 to linear peptide (PEPSCAN-ELISA) / Binding of serum 1a to looped/cyclic peptides of protein N of SARS-CoV Urbani / Binding of serum 1b to looped/cyclic peptides of protein N of SARS-CoV Urbani / Binding of serum 2 to looped/cyclic peptides of protein N of SARS-CoV Urbani / Binding of serum 6 to looped/cyclic peptides of protein N of SARS-CoV Urbani / Binding of serum 37 to looped/cyclic peptides of protein N of SARS-CoV Urbani / Binding of serum 62 to looped/cyclic peptides of protein N of SARS-CoV Urbani / Binding of serum London to looped/cyclic peptides of protein N of SARS-CoV Urbani / Binding of serum SARS-green to looped/cyclic peptides of protein N of SARS-CoV Urbani: unit not given here

| Sequence | Rabbit serum linear peptides [1] | Rabbit serum looped peptides [1] | Binding of Control Serum Blood-Bank to Looped peptides of the protein M of SARS-CoV Urbani [2] | Binding of Control serum Blood-bank to linear peptides of the protein M of SARS-CoV Urbani [2] | Binding of Control serum LUMC to linear peptides of the protein M of SARS-CoV Urbani [2] | Binding of Control serum LUMC to looped peptides of the protein M of SARS-CoV Urbani [2] | Binding of serum 1a to linear peptides of protein M of SARS-CoV Urbani [3] | Binding of serum 1a to looped/cyclic peptides of protein M of SARS-CoV Urbani [3] | Binding of serum 1b to linear peptides of protein M of SARS-CoV Urbani [3] | Binding of serum 1b to looped/cyclic peptides of protein M of SARS-CoV Urbani [3] | Binding of serum 2 to linear peptides of protein M of SARS-CoV Urbani [3] | Binding of serum 2 to looped/cyclic peptides of protein M of SARS-CoV Urbani [3] | Binding of serum 6 to linear peptides of protein M of SARS-CoV Urbani [3] | Binding of serum 6 to looped/cyclic peptides of protein M of SARS-CoV Urbani [3] | Binding of serum 37 to linear peptides of protein M of SARS-CoV Urbani [3] | Binding of serum 37 to looped/cyclic peptides of protein M of SARS-CoV Urbani [3] | Binding of serum 62 to linear peptides of protein M of SARS-CoV Urbani [3] | Binding of serum 62 to looped/cyclic peptides of protein M of SARS-CoV Urbani [3] | Binding of serum London to linear peptides of protein M of SARS-CoV Urbani [3] | Binding of serum London to looped/cyclic peptides of protein M of SARS-CoV Urbani [3] | also measured |
| --- | --- | --- | --- | --- | --- | --- | --- | --- | --- | --- | --- | --- | --- | --- | --- | --- | --- | --- | --- | --- | --- |
| ELVIGAVIIRGHLRM | 0.8 | 0.1 | 0.7 | 0.7 | 0.5 | 0.6 | 0.8 | 0.8 | 0.6 | 0.4 | 0.7 | 0.7 | 0.3 | 0.7 | 0.8 | 0.7 | 0.8 | 0.6 | 0.3 | 0.2 | Binding of serum SARS-green to linear peptides of protein M of SARS-CoV Urbani [3]: 0.3; Binding of serum SARS-green to looped/cyclic peptides of protein M of SARS-CoV Urbani [3]: 0.3; Binding of serum SARS-yellow to linear peptides of protein M of SARS-CoV Urbani [3]: 0.1; Binding of serum SARS-yellow to looped/cyclic peptides of protein M of SARS-CoV Urbani [3]: 0.6 |
| FVLAAVYRINWVTGG | 0.5 | 0.0 | 0.6 | 0.8 | 0.5 | 0.8 | 0.9 | 0.7 | 0.7 | 0.6 | 0.6 | 0.5 | 0.3 | 0.8 | 0.8 | 0.5 | 0.8 | 0.6 | 0.3 | 0.3 | Binding of serum SARS-green to linear peptides of protein M of SARS-CoV Urbani [3]: 0.3; Binding of serum SARS-green to looped/cyclic peptides of protein M of SARS-CoV Urbani [3]: 0.3; Binding of serum SARS-yellow to linear peptides of protein M of SARS-CoV Urbani [3]: 0.1; Binding of serum SARS-yellow to looped/cyclic peptides of protein M of SARS-CoV Urbani [3]: 0.4 |
| NRYRIGNYKLNTDHA | 0.2 | 0.3 | 0.7 | 0.2 | 0.2 | 0.7 | 0.8 | 0.8 | 0.6 | 0.6 | 0.5 | 0.5 | 0.3 | 0.7 | 0.5 | 0.6 | 0.6 | 0.5 | 0.2 | 0.4 | Binding of serum SARS-green to linear peptides of protein M of SARS-CoV Urbani [3]: 0.2; Binding of serum SARS-green to looped/cyclic peptides of protein M of SARS-CoV Urbani [3]: 0.3; Binding of serum SARS-yellow to linear peptides of protein M of SARS-CoV Urbani [3]: 0.1; Binding of serum SARS-yellow to looped/cyclic peptides of protein M of SARS-CoV Urbani [3]: 0.9 |
